Key:
Assay type in all cases: cell-based
[1] = test system: MKN1 (PI3Kα E545K mutant) cells; test: Inhibition of pAKT formation, alphaLISA SureFire Ultra AKT 1/2/3 (pS473), MKN1 cells; details: Homo sapiens, MKN-1; MKN1 (PI3Kα E545K mutant) cells; inhibition of pAKT (pS473) formation; approximately one hour or 24 hours treatment; read-out: MKN1 (E545K) pAKT IC50
Procedure: The ability of a compound of Formula (I) to inhibit the formation of pAKT was measured using alphaLISA Surefire Ultra AKT 1/2/3 (pS473) Assay Kit (#ALSU-PAKT-B50K) was obtained from Perkin Elmer (Waltham, MA).
To prepare assay plates for pAKT alphaLISA assays, cells were trypsinized, resuspended in fresh media, and viable cells were counted utilizing trypan blue exclusion. Prior to seeding, cells were washed with PBS and resuspended in HBSS (Gibco, #14025092). T47D (12,000/w), SKBR3(12,000/w), or MKN1(24,000/w) cells were seeded at 12 μl per well in a solid white flat bottom 384 cell culture plate (Perkin Elmer #6007680).
Immediately after seeding, cells were dosed using an Echo Liquid Handler (Beckman Coulter) with compounds at a […] starting concentration and serially diluted (1:4) for a total of 10 concentrations. […] Cells were incubated with the compounds (solubilized in DMSO) for approximately one hour or 24 hours at 37° C. After one hour (or 24 hours) of treatment, cells were lysed with 3 μl of the 5× lysis buffer (provided and incubated at room temperature for 15 min on a microtiter plate shaker). Once cells were sufficiently lysed, 7.5 μl of the acceptor bead mix (made using the manufacturers recommended dilutions) was added to each well and left on the microtiter plate shaker for 1 min prior to incubating plates at room temperature for one hour, in the absence of light. After one hour of incubation with the acceptor bead mix, 7.5 μl of the donor bead mix (made using the manufacturers recommended dilutions) was added to each well and left on the microtiter plate shaker for 1 min prior to incubating plates at room temperature overnight in the absence of light. Plates were then imaged the following day using a CLARIOstar microplate reader (BMG Labtech, Germany).
Percent of control values were calculated by subtracting the average signal from the positive control (alpelisib) treated wells from all treated wells (including DMSO control wells) and then divided by the average signal from the vehicle DMSO treated control wells. Percent of vehicle control values were plotted as log (inhibitor) vs. response-Variable slope (four parameters) for curve fitting and IC50 values were determined using XLfit.
Key: N.D. =not determined

[2] = test system: SKBR3 (PI3Kα wild type) cells; test: CellTiter-Glo 2.0 luminescent cell viability assay, 72 hours, SKBR3 cells; details: Homo sapiens, SK-BR-3, 72 h, SKBR3 (PI3Kα wild type) cells, CellTiter-Glo, approximately 72 hours; read-out: SKBR3 (WT) Viability IC50
How it was run: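 Viability measured via CTG luminescence following roughly 72 hours of compound exposure at 37° C. Dosing used a 10 um starting concentration diluted 1:4 over 10 points; percent-of-vehicle data fitted with a variable-slope four-parameter model for IC50.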

[3] = test system: SKBR3 (PI3Kα wild type) cells; test: Inhibition of pAKT formation, alphaLISA SureFire Ultra AKT 1/2/3 (pS473), SKBR3 cells; details: Homo sapiens, SK-BR-3; Inhibition of pAKT in SKBR3 (PI3Kα wild type) cells; read-out: SKBR3 (WT) pAKT IC50 (nM) (H1047R mutant) IC50
How it was run: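 Cells seeded in HBSS (SKBR3 12,000/well, MKN1 24,000/well) and dosed immediately, 10-point 1:4 series from […], for about 1 h or 24 h at 37 °C. pAKT S473 by alphaLISA after lysis; signal normalised to alpelisib and DMSO controls, IC50 by four-parameter fit.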

[4] = test system: MKN1 (PI3Kα E545K mutant) cells; test: CellTiter-Glo 2.0 luminescent cell viability assay, 72 hours, MKN1 cells; details: Homo sapiens, MKN-1; MKN1 (PI3Kα E545K mutant) cells, CellTiter-Glo, approximately 72 hours; read-out: MKN1 (E545K) Viability IC50
Procedure: This Example illustrates that exemplary compounds of the present invention decrease the viability of cells.
The ability of a compound of Formula (I) to decrease the viability of cells was measured using CellTiter-Glo 2.0 (CTG) Luminescent Cell Viability Assay (#G9241) obtained from Promega (Madison, WI).
To prepare assay plates for viability assays, cells were trypsinized, resuspended in fresh media, and viable cells were counted utilizing trypan blue exclusion. T47D, SKBR3, or MKN1 cells were seeded at 1000 cells in 30 μl per well in a solid white flat bottom 384 cell culture plate (Perkin Elmer #6007680) and incubated at 37° C. overnight.
Assay day 1, cells were dosed using an Echo Liquid Handler (Beckman Coulter) with compounds at a 10 um starting concentration and serially diluted (1:4) for a total of 10 concentrations. Cells were incubated for approximately 72 hours with the compounds (solubilized in DMSO) at 37° C. After 72 hours of treatment, cell plates were equilibrated to room temperature before adding 15 μl of CTG to each well, plates were then covered in aluminum foil to protect from light, incubated at room temperature for 30 minutes on a microtiter plate shaker, and luminescence readings were collected using a CLARIOstar microplate reader (BMG Labtech, Germany). Percent of vehicle control values were plotted as log (inhibitor) vs. response-Variable slope (four parameters) for curve fitting and IC50 values were determined using XLfit.

[5] = test system: T47D (PI3Kα H1047R mutant) cells; test: Inhibition of pAKT formation, alphaLISA SureFire Ultra AKT 1/2/3 (pS473), T47D cells; details: Homo sapiens, T47D, T47D (PI3Kα H1047R mutant) cells; inhibition of pAKT (pS473) formation; approximately one hour or 24 hours treatment; read-out: T47D pAKT (H1047R mutant) IC50
How it was run: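 T47D cells (12,000/well) in HBSS were dosed with compound at 10 concentrations (10.4 μM top, 1:4 dilutions) for about 1 h or 24 h at 37 °C, then lysed. pS473 AKT was read by alphaLISA. Signals were normalized to alpelisib and DMSO controls, and IC50 came from a four-parameter fit.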

[6] = test system: T47D (PI3Kα H1047R mutant) cells; test: CellTiter-Glo 2.0 luminescent cell viability assay, 72 hours, T47D cells; details: Homo sapiens, T47D, 72 h, T47D (PI3Kα H1047R mutant) cells, CellTiter-Glo, approximately 72 hours; read-out: T47D (H1047R mutant) Viability IC50
How it was run: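 Cells seeded at 1000 per well overnight were dosed with a 10-concentration, 1:4 series starting at 10 µM and incubated ~72 h at 37° C. Viability was read by CellTiter-Glo 2.0 luminescence after 30 min at room temperature. IC50 came from four-parameter fits of percent vehicle control.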

Row | SMILES | IC50 [1] [µM] | IC50 [2] [µM] | IC50 [3] [nM] | IC50 [4] [µM] | IC50 [5] [µM] | IC50 [6] [µM]
1 | Cc1cc(C(C)N(C)C(=O)CCl)c2nc(N3CCCCC3)cc(=O)n2c1 (stereo not drawn) [Example 4-4, 2-chloro-N-methyl-N-(1-(7-methyl-4-oxo-2-(piperidin-1-yl)-4H-pyrido[1,2-a]pyrimidin-9-yl)ethyl)acetamide] | > 10 | 3.86 | > 10000 | 4.29 | > 10 | > 10
2 | Cc1cc(C(C)Nc2ccccc2C(=O)O)c2nc(OCc3ccccc3)cc(=O)n2c1 (stereo not drawn) [Example 9-3, 2-((1-(2-(benzyloxy)-7-methyl-4-oxo-4H-pyrido[1,2-a]pyrimidin-9-yl)ethyl)amino)benzoic acid] | > 10 | 4.77 | > 10000 | 3.78 | 0.129 | 4.45
3 | Cc1cc([C@H](C)Nc2ccccc2C(=O)O)c2nc(N3CCC(C)(C)CC3)cc(=O)n2c1 (single isomer, unassigned) [Example 5-4] | 1.95 | > 10 | 7070 | > 10 | 0.0135 | 0.98
4 | Cc1cc([C@H](C)Nc2ccccc2C(=O)O)c2nc(N3Cc4ccccc4C3)c(C)c(=O)n2c1 (single isomer, unassigned) [Example 5-9-1] | 0.271 | > 10 | 4550 | > 10 | 0.0117 | 0.316
5 | Cc1cc(C(C)Nc2ccccc2C(=O)N(C)C)c2nc(N3CCCCC3)cc(=O)n2c1 (stereo not drawn) [Example 3-15, N,N-dimethyl-2-((1-(7-methyl-4-oxo-2-(piperidin-1-yl)-4H-pyrido[1,2-a]pyrimidin-9-yl)ethyl)amino)benzamide] | > 10 | > 10 | > 10000 | > 10 | > 10 | > 10
6 | CC(Nc1ccccc1C(=O)O)c1cccn2c(=O)cc(N3CCC(C)(C)CC3)nc12 (stereo not drawn) [Example 9-2, 2-((1-(2-(4,4-dimethylpiperidin-1-yl)-4-oxo-4H-pyrido[1,2-a]pyrimidin-9-yl)ethyl)amino) benzoic acid] | > 10 | > 10 | > 10000 | > 10 | 0.0339 | > 10
7 | CC(Nc1ccccc1C(=O)O)c1cc(C2CC2)cn2c(=O)cc(N3CCCCC3)nc12 (stereo not drawn) [Example 5-3, 2-((1-(7-cyclopropyl-4-oxo-2-(piperidin-1-yl)-4H-pyrido[1,2-a]pyrimidin-9-yl)ethyl)amino)benzoic acid] | > 10 | > 10 | 3540 | > 10 | 0.0321 | > 10
8 | Cc1cc(C(C)Nc2ccccc2O)c2nc(N3CCCCC3)cc(=O)n2c1 (stereo not drawn) [Example 3-16, 9-(1-((2-hydroxyphenyl)amino)ethyl)-7-methyl-2-(piperidin-1-yl)-4H-pyrido[1,2-a]pyrimidin-4-one] | > 10 | 9.3 | > 10000 | > 10 | > 10 | > 10
9 | COc1ccc(C(=O)O)c(NC(C)c2cc(C)cn3c(=O)cc(N4CCCCC4)nc23)c1 (stereo not drawn) [Example 3-7, 4-methoxy-2-((1-(7-methyl-4-oxo-2-(piperidin-1-yl)-4H-pyrido[1,2-a]pyrimidin-9-yl)ethyl)amino)benzoic acid] | > 10 | > 10 | 8030 | > 10 | > 10 | > 10
10 | C=CC(=O)N(C)C(C)c1cc(C)cn2c(=O)cc(N3CCCCC3)nc12 (stereo not drawn) [Example 4-2, N-methyl-N-(1-(7-methyl-4-oxo-2-(piperidin-1-yl)-4H-pyrido[1,2-a]pyrimidin-9-yl)ethyl)acrylamide] | > 10 | > 10 | > 10000 | > 10 | > 10 | > 10
11 | CC(Nc1ccccc1C(=O)O)c1cc(C(F)F)cn2c(=O)cc(N3CCCCC3)nc12 (stereo not drawn) [Example 5-7, 2-((1-(7-(difluoromethyl)-4-oxo-2-(piperidin-1-yl)-4H-pyrido[1,2-a]pyrimidin-9-yl)ethyl)amino)benzoic acid] | > 10 | 2.95 | > 10000 | 3.28 | 0.0341 | 2.63
12 | Cc1cc([C@@H](C)Nc2ccccc2C(=O)O)c2nc(N3CCCCC3)cc(=O)n2c1 (single isomer, unassigned) [Example 3-1] | 2.5 | > 10 | > 10000 | > 10 | 0.0149 | 1.27
13 | CCc1cc(C(C)Nc2ccccc2C(=O)O)c2nc(N3CCCCC3)cc(=O)n2c1 (stereo not drawn) [Example 5-8, 2-((1-(7-ethyl-4-oxo-2-(piperidin-1-yl)-4H-pyrido[1,2-a]pyrimidin-9-yl)ethyl)amino)benzoic acid] | > 10 | > 10 | > 10000 | > 10 | 0.017 | 3.79
14 | Cc1cc(C(C)Nc2cc(O)ccc2C(=O)O)c2nc(N3CCCCC3)cc(=O)n2c1 (stereo not drawn) [Example 3-8, 4-hydroxy-2-((1-(7-methyl-4-oxo-2-(piperidin-1-yl)-4H-pyrido[1,2-a]pyrimidin-9-yl)ethyl)amino)benzoic acid] | > 10 | > 10 | > 10000 | > 10 | 3 | > 10
15 | Cc1cc([C@@H](C)Nc2ccccc2C(=O)O)c2nc(N3CCC(C)(C)CC3)c(C)c(=O)n2c1 (single isomer, unassigned) [Example 5-1] | 1.39 | > 10 | 1820 | > 10 | 0.03 | 0.461

— patent US20260078120A1, “SUBSTITUTED PYRIDOPYRIMIDINONES” (MIRATI THERAPEUTICS, INC., priority 2022, published 2026)
